Measurements reported in patent US4909940A, “Extraction of process chemicals from labile biological mixtures with organic alcohols or with halogenated hydrocarbons” (priority 1987, dated 1990).
Where two headings read alike, the source gives them in different places.

Assays:
AHF [1] = assay: AHF retention after extraction of AHF concentrate with halogenated hydrocarbons; assay type: biochemical, human; details: 5% (w/v) halogenated hydrocarbon, 30 minutes, ambient
Protocol: (§2) An AHF concentrate prepared from human plasma was treated with 0.3% TNBP and either 1% "TRITON X-45" or 1% "TWEEN 80" to inactivate virus. Following treatment, the solution was extracted one time with 5% (w/v) of a halogenated hydrocarbon by mixing for a period of 30 minutes at ambient temperature. The quantity of residual AHF, TNBP and detergent present in the aqueous solution was measured and compared with the unextracted control.

[2] = Removal of TNBP from AHF concentrate with halogenated hydrocarbons; details: 0.3% TNBP; 5% (w/v) halogenated hydrocarbon, 30 minutes, ambient
Protocol: as §2

[3] = Removal of TRITON X-45 from AHF concentrate with halogenated hydrocarbons; details: 1% TRITON X-45; 5% (w/v) halogenated hydrocarbon, 30 minutes, ambient
Protocol: as §2

[4] = Removal of TWEEN 80 from AHF concentrate with halogenated hydrocarbons; details: 1% TWEEN 80; 5% (w/v) halogenated hydrocarbon, 30 minutes, ambient
Protocol: as §2

AHF [5] = assay: AHF retention after extraction of AHF concentrate with alcohols; assay type: biochemical, human; details: 0.3% TNBP and 1% TRITON X-45; 10% (w/v) alcohol, 30 minutes, ambient
[6] = Removal of TRITON X-45 from AHF concentrate with alcohols; details: 0.3% TNBP and 1% TRITON X-45; 10% (w/v) alcohol, 30 minutes, ambient
[7] = Aqueous solubility of alcohols; details: water
[8] = Extraction of process chemicals from saline: TNBP; details: 1% TNBP in saline
[9] = Extraction of process chemicals from saline: TWEEN 80; details: 1% TWEEN 80 in saline
[10] = Extraction of process chemicals from saline: TRITON X45; details: 1% TRITON X45 in saline
[11] = Extraction of process chemicals from saline: TRITON X114; details: 1% TRITON X114 in saline
[12] = Extraction of process chemicals from saline: TRITON X100; details: 1% TRITON X100 in saline
[13] = Extraction of process chemicals from saline: Nonoxynol; details: 1% Nonoxynol in saline; 5% extractant
[14] = Extraction of process chemicals from plasma: TNBP; details: 2% TNBP in plasma
From the text: (§1) The results are in general agreement with those observed extracting from saline.

[15] = Extraction of process chemicals from plasma: TWEEN 80; details: 1% TWEEN 80 in plasma
From the text: as §1

[16] = Extraction of process chemicals from plasma: TRITON X45; details: 1% TRITON X45 in plasma
From the text: as §1

[17] = Extraction of process chemicals from plasma: TRITON X114; details: 1% TRITON X114 in plasma
From the text: as §1

[18] = Extraction of process chemicals from plasma: TRITON X100; details: 1% TRITON X100 in plasma
From the text: as §1

AHF [19] = assay: Recovery of AHF procoagulant activity following extraction; assay type: biochemical; details: for AHF recovery: AHF concentrate or plasma; for AHF % Recovery / AHF Activity After: 5% extractant
AHF [20] = assay: Protein functional activity after extraction of plasma: AHF; assay type: biochemical; details: 10% extractant, 30 minutes, ambient
Factor IX = assay: Protein functional activity after extraction of plasma: Factor IX; assay type: biochemical; details: 10% extractant, 30 minutes, ambient
Protocol: (§3) Plasma was extracted with either 10% "FORANE" or 10% 2-octanol for 30 minutes at ambient temperature.

Antithrombin III = assay: Protein functional activity after extraction of plasma: Antithrombin III; assay type: biochemical; details: 10% extractant, 30 minutes, ambient
Protocol: as §3

AHF [21] = assay: AHF activity retained after depyrogenation extraction; assay type: biochemical; details: 10% (v/v) extractant, 30 minutes, 24° C.
Protocol: AHF concentrate containing 6.4 ng/ml of endotoxin was extracted by mechanically shaking with 10% (v/v) 2-octanol or "FORANE" for 30 minutes at 24° C. After separation of the extractant by centrifugation, the pyrogen level was determined by the Limulus Amebocyte Lysate assay with a sensitivity of 0.025 ng/ml of endotoxin. The effect of these treatments is shown below in Table XI. […] More than 90% of the original AHF activity was retained following the extraction.

red blood cells = assay: Red blood cell retention on extraction with FORANE; parameters: species or system human; details: 10% FORANE
[22] = Merocyanine removal from saline on extraction with FORANE; details: 10% FORANE
AHF [23] = assay: AHF recovery after extraction of cryoprecipitate; assay type: biochemical; details: extracted two times, 10% FORANE or 10% FORANE and 5% heptanol; sterile filtered, lyophilized
[24] = Removal of TNBP from cryoprecipitate; details: extracted two times, 10% FORANE or 10% FORANE and 5% heptanol; lyophilized
[25] = Removal of TRITON X-45 from cryoprecipitate; details: extracted two times, 10% FORANE or 10% FORANE and 5% heptanol; lyophilized
[26] = water
[27] = system: Vesicular stomatitis virus; assay: microbe, parasite or virus in culture; assay type: cell-based

SMILES: FC(F)(Cl)C(F)(Cl)Cl [1,2,2-Trifluorotrichloroethane, 1,2,2-trifluorotrichloroethane]
- % Retention AHF (AHF [1]): 98%
- Percent Removal TNBP [2]: 93%
- Percent Removal TRITON X-45 [3]: 8%
- Percent Removal TWEEN 80 [4]: 3%

SMILES: CCCCCCCCCCO [1-decanol]
- AHF (% Retention) (AHF [5]): 100%
- TRITON X-45 (% Removal) [6]: 100%
- Aqueous Solubility [7]: < 0.05 g %

SMILES: CCCCCCCCCO [1-nonanol]
- AHF (% Retention) (AHF [5]): 100%
- TRITON X-45 (% Removal) [6]: 100%

SMILES: CCCCCCCCO [1-octanol]
- AHF (% Retention) (AHF [5]): 96%
- TRITON X-45 (% Removal) [6]: 100%
- Aqueous Solubility [7]: 0.05 g %

SMILES: CCCCCO [1-pentanol]
- Percent Extraction ([8]; 5% extractant): 99%
- Percent Extraction ([9]; 5% extractant): 28-42%
- Percent Extraction ([10]; 5% extractant): 97%
- Percent Extraction ([11]; 5% extractant): 91%
- Percent Extraction ([12]; 5% extractant): 92%
- Percent Extraction [13]: 92%
- Percent Extraction ([14]; 5% extractant): 98%
- Percent Extraction ([15]; 5% extractant): 7%
- Percent Extraction ([16]; 5% extractant): 80%
- Percent Extraction ([17]; 5% extractant): 75%
- Percent Extraction ([18]; 5% extractant): 65%
- AHF recovery (AHF [19]): approximately 1%
- AHF % Recovery (AHF [19]; AHF concentrate): 1%
- AHF Activity After (AHF [19]; AHF concentrate): 0.02 units/mL
- AHF % Recovery (AHF [19]; plasma): 1%
- AHF Activity After (AHF [19]; plasma): 0.01 units/mL

SMILES: CCCCCCC(C)O (stereo not shown) [2-octanol]
- Percent Extraction ([8]; 5% extractant): 99%
- Percent Extraction ([9]; 5% extractant): 0-12%
- Percent Extraction ([10]; 5% extractant): 83-96%
- Percent Extraction ([11]; 5% extractant): 94%
- Percent Extraction ([12]; 5% extractant): 60%
- Percent Extraction [13]: 49%
- Percent Extraction ([14]; 5% extractant): 98%
- Percent Extraction ([15]; 5% extractant): 21%
- Percent Extraction ([16]; 5% extractant): 62%
- Percent Extraction ([17]; 5% extractant): 33%
- Percent Extraction ([18]; 5% extractant): 19%
- AHF recovery (AHF [19]): approximately 90%
- AHF % Recovery (AHF [19]; AHF concentrate): 89%
- AHF Activity After (AHF [19]; AHF concentrate): 2.35 units/mL
- AHF % Recovery (AHF [19]; plasma): 91%
- AHF Activity After (AHF [19]; plasma): 1.15 units/mL
- AHF (% Retention) (AHF [5]): 93%
- TRITON X-45 (% Removal) [6]: 100%
- % Retention AHF (AHF [20]): 95%
- % Retention Factor IX (Factor IX): 99%
- % Retention Antithrombin III (Antithrombin III): 100%
- original AHF activity retained (AHF [21]): More than 90%
- Aqueous Solubility [7]: 0.05 g %

SMILES: FC(F)OC(F)(F)C(F)Cl (stereo not shown) [Ethrane, 2-chloro-1,1,2-trifluoroethyl difluoromethyl ether]
- % Retention AHF (AHF [1]): 100%
- Percent Removal TNBP [2]: 99%
- Percent Removal TRITON X-45 [3]: 99%

SMILES: FC(F)OC(Cl)C(F)(F)F (stereo not shown) [FORANE, 1-chloro-2,2,2-trifluoroethyl difluoromethyl ether]
- Percent Extraction ([8]; 5% extractant): 99%
- Percent Extraction ([8]; 20% extractant): 99%
- Percent Extraction ([9]; 5% extractant): 85%
- Percent Extraction ([9]; 20% extractant): 87%
- Percent Extraction ([10]; 5% extractant): 99%
- Percent Extraction ([10]; 20% extractant): 99%
- Percent Extraction ([11]; 5% extractant): 99%
- Percent Extraction ([11]; 20% extractant): 99%
- Percent Extraction ([12]; 5% extractant): 99%
- Percent Extraction ([12]; 20% extractant): 99%
- Percent Extraction ([14]; 5% extractant): 94%
- Percent Extraction ([14]; 20% extractant): 96%
- Percent Extraction ([15]; 20% extractant): 66%
- Percent Extraction ([16]; 5% extractant): 91%
- Percent Extraction ([16]; 20% extractant): 99%
- Percent Extraction ([17]; 5% extractant): 96%
- Percent Extraction ([17]; 20% extractant): 96%
- Percent Extraction ([18]; 5% extractant): 95%
- Percent Extraction ([18]; 20% extractant): 96%
- AHF recovery (AHF [19]): ~100%
- AHF % Recovery (AHF [19]; AHF concentrate): 102%
- AHF Activity After (AHF [19]; AHF concentrate): 2.69 units/mL
- % Retention AHF (AHF [1]): 100%
- Percent Removal TNBP [2]: 99%
- Percent Removal TRITON X-45 [3]: 99%
- Percent Removal TWEEN 80 [4]: 87%
- Red Blood Cell Retention (red blood cells): 97%
- Merocyanine % Removal [22]: 83%
- AHF recovery (AHF [23]): 95%
- Percent Removal TNBP [24]: 99.88%
- Percent Removal TRITON X-45 [25]: 96%
- % Retention AHF (AHF [20]): 98%
- % Retention Factor IX (Factor IX): 99%
- % Retention Antithrombin III (Antithrombin III): 100%
- original AHF activity retained (AHF [21]): More than 90%

SMILES: FC1(F)C(F)(F)C(F)(F)C2(F)C(F)(F)C(F)(F)C(F)(F)C(F)(F)C2(F)C1(F)F (stereo not shown) [Perfluorodecalin]
- % Retention AHF (AHF [1]): 107%
- Percent Removal TNBP [2]: 14%
- Percent Removal TRITON X-45 [3]: 0%
- Percent Removal TWEEN 80 [4]: 0%

SMILES: FC(F)(F)C(F)(F)C(F)(F)C(F)(F)C(F)(F)C(F)(F)F [Perfluorohexane]
- % Retention AHF (AHF [1]): 98%
- Percent Removal TNBP [2]: 27%
- Percent Removal TRITON X-45 [3]: 0%
- Percent Removal TWEEN 80 [4]: 0%

SMILES: FC(F)(F)C(F)(F)C(F)(F)C(F)(F)N(C(F)(F)C(F)(F)C(F)(F)C(F)(F)F)C(F)(F)C(F)(F)C(F)(F)C(F)(F)F [Perfluorotributyl amine]
- % Retention AHF (AHF [1]): 112%
- Percent Removal TNBP [2]: 31%
- Percent Removal TRITON X-45 [3]: 0%
- Percent Removal TWEEN 80 [4]: 3%

SMILES: CCCCCO [amyl alcohol]
- AHF (% Retention) (AHF [5]): 1%
- TRITON X-45 (% Removal) [6]: 100%
- Aqueous Solubility [26]: 2.3 g %

SMILES: CCCCCCCO [heptanol]
- AHF (% Retention) (AHF [5]): 98%
- TRITON X-45 (% Removal) [6]: 100%
- Aqueous Solubility [26]: 0.2 g %

SMILES: CCCCCCO [hexanol]
- AHF (% Retention) (AHF [5]): 63%
- TRITON X-45 (% Removal) [6]: 100%

SMILES: CC(C)CCO [isoamyl alcohol]
- AHF (% Retention) (AHF [5]): 1%
- TRITON X-45 (% Removal) [6]: 100%
- Aqueous Solubility [7]: 2.0 g %

SMILES: CCCCN1C(=O)C(=CC=CC=C2Oc3ccccc3N2CCCS(=O)(=O)O)C(=O)N(CCCC)C1=S [merocyanine 540]
- Final Virus Titer [27]: < -0.5
- Virus titer, Control (no light) [27]: 3.7
- log reduction at 40 µg/mL ([27]; Vesicular stomatitis virus, 1 h, read-out: Total Virus Kill): > 4.2

SMILES: CCCCCCCCCCCO [undecanol]
- AHF (% Retention) (AHF [5]): 94%
- TRITON X-45 (% Removal) [6]: 100%
- Aqueous Solubility [7]: < 0.05 g %
